Reference: the NIST ThermoML archive (doi:10.1016/j.fluid.2012.11.003)
Numbers after ± are expanded uncertainties.

Assays:
[1] = excess molar enthalpy (molar enthalpy of mixing); xn = mol fraction of the nth substance listed; conditions: 353.15 K, 101 kPa, Liquid, Flow calorimetry
[2] = activity coefficient (dimensionless); of the first substance listed, at infinite dilution; xn = mol fraction of the nth substance listed; conditions: 101 kPa, Liquid, dilutor technique, x1 = 0

CCOS(=O)(=O)[O-].CCn1cc[n+](C)c1 [1-ethyl-3-methylimidazolium ethyl sulfate] + CCO
excess molar enthalpy ([1]; x2 = 0.0627): 0.0259 ± 0.000645 kcal/mol
excess molar enthalpy ([1]; x2 = 0.1063): 0.0446 ± 0.00103 kcal/mol
excess molar enthalpy ([1]; x2 = 0.1471): 0.0636 ± 0.00141 kcal/mol
excess molar enthalpy ([1]; x2 = 0.1979): 0.0845 ± 0.00186 kcal/mol
excess molar enthalpy ([1]; x2 = 0.267): 0.109 ± 0.00239 kcal/mol
excess molar enthalpy ([1]; x2 = 0.3288): 0.137 ± 0.00287 kcal/mol
excess molar enthalpy ([1]; x2 = 0.4017): 0.167 ± 0.00359 kcal/mol
excess molar enthalpy ([1]; x2 = 0.4504): 0.181 ± 0.00382 kcal/mol
excess molar enthalpy ([1]; x2 = 0.548): 0.206 ± 0.00454 kcal/mol
excess molar enthalpy ([1]; x2 = 0.6281): 0.219 ± 0.00478 kcal/mol
excess molar enthalpy ([1]; x2 = 0.7203): 0.219 ± 0.00478 kcal/mol
excess molar enthalpy ([1]; x2 = 0.7937): 0.205 ± 0.0043 kcal/mol
excess molar enthalpy ([1]; x2 = 0.8535): 0.174 ± 0.00382 kcal/mol
excess molar enthalpy ([1]; x2 = 0.9032): 0.13 ± 0.00287 kcal/mol
excess molar enthalpy ([1]; x2 = 0.9412): 0.0823 ± 0.00182 kcal/mol
excess molar enthalpy ([1]; x2 = 0.9776): 0.0327 ± 0.000765 kcal/mol

CCn1cc[n+](C)c1.COS(=O)(=O)[O-] [1-ethyl-3-methylimidazolium methylsulfate] + CCO
excess molar enthalpy ([1]; x2 = 0.0977): 0.033 ± 0.000789 kcal/mol
excess molar enthalpy ([1]; x2 = 0.1834): 0.0608 ± 0.00136 kcal/mol
excess molar enthalpy ([1]; x2 = 0.249): 0.0835 ± 0.00184 kcal/mol
excess molar enthalpy ([1]; x2 = 0.3794): 0.134 ± 0.00287 kcal/mol
excess molar enthalpy ([1]; x2 = 0.5247): 0.185 ± 0.00406 kcal/mol
excess molar enthalpy ([1]; x2 = 0.6059): 0.206 ± 0.00454 kcal/mol
excess molar enthalpy ([1]; x2 = 0.701): 0.218 ± 0.00478 kcal/mol
excess molar enthalpy ([1]; x2 = 0.7779): 0.209 ± 0.00454 kcal/mol
excess molar enthalpy ([1]; x2 = 0.8414): 0.183 ± 0.00406 kcal/mol
excess molar enthalpy ([1]; x2 = 0.8947): 0.14 ± 0.00311 kcal/mol
excess molar enthalpy ([1]; x2 = 0.9358): 0.091 ± 0.00198 kcal/mol
excess molar enthalpy ([1]; x2 = 0.9754): 0.0381 ± 0.000884 kcal/mol

CCCCO [butan-1-ol] + CCOS(=O)(=O)[O-].CCn1cc[n+](C)c1
activity coefficient ([2]; 313.15 K): 1.93 ± 0.14
activity coefficient ([2]; 323.15 K): 1.65 ± 0.12
activity coefficient ([2]; 333.15 K): 1.39 ± 0.093
activity coefficient ([2]; 343.15 K): 1.37 ± 0.092
activity coefficient ([2]; 353.15 K): 1.19 ± 0.077

CCCCO [butan-1-ol] + CCn1cc[n+](C)c1.COS(=O)(=O)[O-]
activity coefficient ([2]; 323.15 K): 2.62 ± 0.23
activity coefficient ([2]; 333.15 K): 2.4 ± 0.21
activity coefficient ([2]; 343.15 K): 2.05 ± 0.18
activity coefficient ([2]; 353.15 K): 1.74 ± 0.12

CCCCO [butan-1-ol] + CCn1cc[n+](C)c1.O=S(=O)([O-])O
activity coefficient ([2]; 323.15 K): 0.758 ± 0.052
activity coefficient ([2]; 333.15 K): 0.62 ± 0.047
activity coefficient ([2]; 343.15 K): 0.43 ± 0.041

CCC(C)O (stereo unspecified) [butan-2-ol] + CCOS(=O)(=O)[O-].CCn1cc[n+](C)c1
activity coefficient ([2]; 303.15 K): 2.06 ± 0.18
activity coefficient ([2]; 313.15 K): 1.83 ± 0.13
activity coefficient ([2]; 323.15 K): 1.69 ± 0.12
activity coefficient ([2]; 333.15 K): 1.56 ± 0.11
activity coefficient ([2]; 343.15 K): 1.62 ± 0.11
activity coefficient ([2]; 353.15 K): 1.39 ± 0.094

CCC(C)O (stereo unspecified) [butan-2-ol] + CCn1cc[n+](C)c1.COS(=O)(=O)[O-]
activity coefficient ([2]; 323.15 K): 4.02 ± 0.36
activity coefficient ([2]; 333.15 K): 3.11 ± 0.28
activity coefficient ([2]; 343.15 K): 2.58 ± 0.23
activity coefficient ([2]; 353.15 K): 2.24 ± 0.2

CCC(C)O (stereo unspecified) [butan-2-ol] + CCn1cc[n+](C)c1.O=S(=O)([O-])O
activity coefficient ([2]; 323.15 K): 1.22 ± 0.079
activity coefficient ([2]; 333.15 K): 0.76 ± 0.052
activity coefficient ([2]; 343.15 K): 0.566 ± 0.045
activity coefficient ([2]; 353.15 K): 0.452 ± 0.042

CCO [ethanol] + CCOS(=O)(=O)[O-].CCn1cc[n+](C)c1
activity coefficient ([2]; 303.15 K): 0.866 ± 0.056
activity coefficient ([2]; 313.15 K): 0.783 ± 0.053
activity coefficient ([2]; 323.15 K): 0.703 ± 0.05
activity coefficient ([2]; 333.15 K): 0.6 ± 0.046
activity coefficient ([2]; 343.15 K): 0.554 ± 0.045
activity coefficient ([2]; 353.15 K): 0.534 ± 0.044

CCO [ethanol] + CCn1cc[n+](C)c1.COS(=O)(=O)[O-]
activity coefficient ([2]; 323.15 K): 0.449 ± 0.042
activity coefficient ([2]; 333.15 K): 0.398 ± 0.041
activity coefficient ([2]; 343.15 K): 0.349 ± 0.039
activity coefficient ([2]; 353.15 K): 0.303 ± 0.039

CCO [ethanol] + CCn1cc[n+](C)c1.O=S(=O)([O-])O
activity coefficient ([2]; 313.15 K): 0.426 ± 0.041
activity coefficient ([2]; 323.15 K): 0.269 ± 0.039
activity coefficient ([2]; 333.15 K): 0.177 ± 0.039
activity coefficient ([2]; 343.15 K): 0.13 ± 0.039
activity coefficient ([2]; 353.15 K): 0.116 ± 0.039

CO [methanol] + CCOS(=O)(=O)[O-].CCn1cc[n+](C)c1
activity coefficient ([2]; 303.15 K): 0.537 ± 0.044
activity coefficient ([2]; 313.15 K): 0.419 ± 0.041
activity coefficient ([2]; 323.15 K): 0.406 ± 0.041
activity coefficient ([2]; 333.15 K): 0.41 ± 0.041
activity coefficient ([2]; 343.15 K): 0.389 ± 0.04
activity coefficient ([2]; 353.15 K): 0.339 ± 0.039

CO [methanol] + CCn1cc[n+](C)c1.COS(=O)(=O)[O-]
activity coefficient ([2]; 323.15 K): 0.257 ± 0.039
activity coefficient ([2]; 333.15 K): 0.203 ± 0.039
activity coefficient ([2]; 343.15 K): 0.178 ± 0.039
activity coefficient ([2]; 353.15 K): 0.105 ± 0.039

CO [methanol] + CCn1cc[n+](C)c1.O=S(=O)([O-])O
activity coefficient ([2]; 323.15 K): 0.087 ± 0.039
activity coefficient ([2]; 333.15 K): 0.078
activity coefficient ([2]; 343.15 K): 0.058
activity coefficient ([2]; 353.15 K): 0.041

CCCO [propan-1-ol] + CCOS(=O)(=O)[O-].CCn1cc[n+](C)c1
activity coefficient ([2]; 303.15 K): 1.31 ± 0.087
activity coefficient ([2]; 313.15 K): 1.2 ± 0.078
activity coefficient ([2]; 323.15 K): 1.03 ± 0.064
activity coefficient ([2]; 333.15 K): 0.914 ± 0.058
activity coefficient ([2]; 343.15 K): 0.855 ± 0.055
activity coefficient ([2]; 353.15 K): 0.803 ± 0.054

CCCO [propan-1-ol] + CCn1cc[n+](C)c1.COS(=O)(=O)[O-]
activity coefficient ([2]; 323.15 K): 1.05 ± 0.066
activity coefficient ([2]; 333.15 K): 0.975 ± 0.06
activity coefficient ([2]; 343.15 K): 0.839 ± 0.055
activity coefficient ([2]; 353.15 K): 0.705 ± 0.05

CCCO [propan-1-ol] + CCn1cc[n+](C)c1.O=S(=O)([O-])O
activity coefficient ([2]; 323.15 K): 0.431 ± 0.041
activity coefficient ([2]; 333.15 K): 0.338 ± 0.039
activity coefficient ([2]; 343.15 K): 0.233 ± 0.039
activity coefficient ([2]; 353.15 K): 0.196 ± 0.039

CC(C)O [propan-2-ol] + CCOS(=O)(=O)[O-].CCn1cc[n+](C)c1
activity coefficient ([2]; 303.15 K): 1.48 ± 0.1
activity coefficient ([2]; 313.15 K): 1.31 ± 0.087
activity coefficient ([2]; 323.15 K): 1.25 ± 0.082
activity coefficient ([2]; 333.15 K): 1.04 ± 0.065
activity coefficient ([2]; 343.15 K): 1.01 ± 0.062
activity coefficient ([2]; 353.15 K): 0.966 ± 0.06

CC(C)O [propan-2-ol] + CCn1cc[n+](C)c1.COS(=O)(=O)[O-]
activity coefficient ([2]; 323.15 K): 1.33 ± 0.089
activity coefficient ([2]; 333.15 K): 1.17 ± 0.075
activity coefficient ([2]; 343.15 K): 1.01 ± 0.062
activity coefficient ([2]; 353.15 K): 0.84 ± 0.055

CC(C)O [propan-2-ol] + CCn1cc[n+](C)c1.O=S(=O)([O-])O
activity coefficient ([2]; 323.15 K): 0.577 ± 0.046
activity coefficient ([2]; 333.15 K): 0.356 ± 0.04
activity coefficient ([2]; 343.15 K): 0.278 ± 0.039
activity coefficient ([2]; 353.15 K): 0.223 ± 0.039
